Results reported in ChEMBL document CHEMBL1130470, “Novel inhibitors of the prenylated protein methyltransferase reveal distinctive structural requirements” (Bioorg Med Chem Lett, 1997).
pKi: −log10 of the molar value.

Test: In vitro inhibitory activity against prenylated protein methyltransferase (PPMTase), activity expressed as Ki(inhibitory constant)
Set-up: species or system Rattus norvegicus

SMILES | pKi
CC(C)=CCC/C(C)=C/CC/C(C)=C/CSc1c(Cl)cccc1C(=O)O | < 4.30
CC(C)=CCC/C(C)=C/CC/C(C)=C/CSc1ccc(F)cc1C(=O)O | 5.20
CC(C)=CCC/C(C)=C/CC/C(C)=C/CSc1ccc(Cl)cc1C(=O)O | 5.07
CC(C)=CCC/C(C)=C/CC/C(C)=C/CSc1cc(F)ccc1C(=O)O | 4.64
CC(C)=CCC/C(C)=C/CC/C(C)=C/CSc1cc(Cl)ccc1C(=O)O | 4.55

Next, values leading:

pKi | SMILES
< 4.30 | CC(C)=CCC/C(C)=C/CC/C(C)=C/CC/C(C)=C/CSc1ccccc1C(=O)O
< 4.30 | CC(C)=CCC/C(C)=C/CSc1ccccc1C(=O)O
< 4.30 | COC(=O)c1ccccc1SC/C=C(\C)CC/C=C(\C)CCC=C(C)C
5.55 | CC(C)=CCC/C(C)=C/CC/C(C)=C/CSc1ccccc1C(=O)O [SALIRASIB]
